The record followed here is ChEMBL document CHEMBL1201862, “PubChem BioAssay data set” (2004).

Holding throughout (assay): inhibition of tumour cell growth, NCI panel, 48 h
Test [1] deals with LXFL 529.
The subject of test [2] is DMS-273.
The subject of test [3] is DLD-1.
For test [4], the system named is KM-20L2.
Test [5] concerns DMS-114.
For test [6], the system named is M19-MEL.
Test [7] relates to SNB-78.
Test [8] deals with HOP-18.
In test [9] the test system is RXF 631.

Each structure is given as a SMILES string.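 Following 48 hours of exposure in 96-well plates, responses at five concentrations were used to interpolate endpoints linearly. GI50 = concentration required for 50% inhibition of growth.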 Active and inactive are the calls of the source. Rule as the data show it: active = GI50 up to about 1.1 µM and inactive = higher.

On to `CC(C)C(Sc1nc(-c2ccccc2)c(-c2ccccc2)[nH]1)C(=O)N/N=C/c1ccc(Cl)cc1` (configuration not stated), for which the GI50 in test [1] was 32.1 µM (inactive); in test [2] it was 18.2 µM (inactive); in test [3] it was 36.1 µM (inactive); in test [4] it was 20.6 µM (inactive); in test [5], 24.3 µM (inactive); in [6] it was 19.4 µM (inactive). Further, the GI50 in test [7] was 28.7 µM (inactive).
As for `NC1=NN(c2ccccc2)C(=O)C1C(=O)CCC(=O)Nc1cccc(C(F)(F)F)c1` (configuration not stated), the GI50 in test [1] was 36.8 µM (inactive); in test [8] it was > 100 µM (inactive); in test [2], > 100 µM (inactive); in test [3], 48.8 µM (inactive); in test [4], 72.6 µM (inactive); in [5], > 100 µM (inactive). The GI50 in [6], in test [7] and in test [9] was > 100 µM (inactive) throughout.
Take `S=P(N1CCCC1)(N1CC1)N1CC1`: the GI50 in test [8] is > 100 µM (inactive); in [2], > 100 µM (inactive); in test [3], > 100 µM (inactive); in test [4], > 100 µM (inactive); in [5] it was 99.5 µM (inactive); in [6] it was > 100 µM (inactive). Also, the GI50 in [7] is > 100 µM (inactive).
Turning to `c1ccc(SCCCC(Sc2ccccc2)Sc2ccccc2)cc1`, the GI50 in [1], in test [2], in test [3], in [4], in [5] and in test [6] was > 100 µM (inactive) in each case. Further, the GI50 in test [7] is > 100 µM (inactive).
As to `CN(C)CC1CC/C(=C\c2ccc(O)cc2)C1=O` (configuration not stated), the GI50 in [1] was 1.85 µM (inactive); in test [8], 6.35 µM (inactive); in test [2] it was 3.3 µM (inactive); in [3] it was 2.58 µM (inactive); in test [4], 9.55 µM (inactive); in test [5] it was 10 µM (inactive). The GI50 in test [6] was 2.78 µM (inactive); in [7], 11.4 µM (inactive).
As to `COc1ccc(Cc2cc(OC)c(OC)c(OC)c2)cc1`, the GI50 was 0.541 µM (active) in [1]; 0.104 µM (active) in [2]; 0.33 µM (active) in [3]; 0.181 µM (active) in test [4]; 3.34 µM (inactive) in test [7].
`O=C(c1ccc([N+](=O)[O-])cc1[N+](=O)[O-])N(/N=C/C=C/c1ccccc1)c1nnc(-c2ccccc2)c(-c2ccccc2)n1`: the GI50 in [2] was 23.7 µM (inactive); in test [3], 34.8 µM (inactive); in test [4], > 100 µM (inactive); in [5] it was 29.2 µM (inactive); in test [6], 36.7 µM (inactive).
Regarding `CC1=CC2C(=O)N(c3ccccc3)C(=O)C2CC1n1[nH]c(=O)n(Cc2ccccc2)c1=O` (configuration not stated), the GI50 in test [1], in [8], in test [2], in [3], in test [4] and in test [7] was > 100 µM (inactive) each time.
For `N#CCCC(C#N)(C#N)CCC#N`, the GI50 in test [1], in [2], in [4], in test [5] and in test [6] was > 100 µM (inactive) in each case.
Take `C/C(=N\N=C(/S)N(C)C)c1cccc[n+]1[O-]`: the GI50 was 0.466 µM (active) in test [1]; > 100 µM (inactive) in [8]; 12.5 µM (inactive) in [2]; 2.18 µM (inactive) in [3]; 5.61 µM (inactive) in test [4]; 0.482 µM (active) in test [5]. For the same compound, the GI50 in test [6], in [7] and in [9] was > 100 µM (inactive) in each case.
Regarding `Nc1nc(O)c([N+](=O)[O-])c(NCCOCP(=O)(O)O)n1`, the GI50 in [1], in [8], in [2], in test [3], in test [4] and in [6] was > 100 µM (inactive) in each case. Besides, the GI50 in test [7] was > 100 µM (inactive).
For `O=c1[nH]c(=O)n(C2CC(O)C(CO)O2)cc1COCC(F)(F)F` (configuration not stated), the GI50 in test [1], in test [2], in test [3], in test [4], in test [5] and in test [6] was > 100 µM (inactive) each time. Further, the GI50 in [7] and in test [9] was > 100 µM (inactive) each time.
Regarding `O=C(Nc1cc(Cl)ccc1Cl)c1cc2ccccc2oc1=O`, the GI50 in test [8] was 20.9 µM (inactive); in test [2], 98.2 µM (inactive); in test [3], > 100 µM (inactive); in [4] it was > 100 µM (inactive); in [5], 78 µM (inactive); in test [6], > 100 µM (inactive).
Take `CCP(C)(=O)CC`: the GI50 in test [1], in [8], in [2], in [3], in test [4] and in test [5] was > 100 µM (inactive) in each case. Besides, the GI50 in [6], in [7] and in test [9] was > 100 µM (inactive) throughout.
With `C#CCOCn1cnc2c(N)ncnc21`, the GI50 in [1], in test [8], in test [2], in test [3], in test [4] and in test [5] was > 100 µM (inactive) throughout. Moreover, the GI50 in test [6], in test [7] and in [9] was > 100 µM (inactive) each time.
Take `CC(C)(C)/N=C1/CC(C)(C)c2ccccc2/C(=N\c2ccccc2)S1`: the GI50 in test [1] is 29.9 µM (inactive); in test [2] it was 32.1 µM (inactive); in [3], 26.3 µM (inactive); in test [4], 31.8 µM (inactive); in test [5], 26.7 µM (inactive); in test [6], 36 µM (inactive). Moreover, the GI50 in test [7] was 41.5 µM (inactive).
Consider `O=C1C=C(Br)C(=O)C12CCc1ccccc12` (configuration not stated), for which the GI50 in [1] was 4.45 µM (inactive); in test [8], 7.53 µM (inactive); in test [2], 18.3 µM (inactive); in test [3] it was 9.48 µM (inactive); in test [4], 26.7 µM (inactive); in test [5] it was 20.7 µM (inactive). Also, the GI50 was 19 µM (inactive) in [6] and 22.6 µM (inactive) in [7].
In the case of `C/C(CN1C(=O)c2ccccc2C1=O)=N\NS(=O)(=O)c1ccc(Br)cc1`, the GI50 is > 100 µM (inactive) in [1]; > 100 µM (inactive) in test [8]; > 100 µM (inactive) in test [2]; > 100 µM (inactive) in [3]; > 100 µM (inactive) in [4]; 10.9 µM (inactive) in test [5]. The GI50 in test [6] and in [7] was > 100 µM (inactive) in each case.
`CN(CO)c1nc(N(C)CO)nc(N(C)CO)n1` [TRIMELAMOL]: the GI50 is 18.8 µM (inactive) in test [8]; 7.6 µM (inactive) in test [2]; 10.2 µM (inactive) in [3]; 8.85 µM (inactive) in test [4]; 8.04 µM (inactive) in test [6]; 9.77 µM (inactive) in [7].
On to `N#CC(NNC(=O)c1ccccc1O)c1ccc(O)cc1` (configuration not stated), for which the GI50 in test [1] is 4.06 µM (inactive); in [8] it was 9.1 µM (inactive); in test [2] it was 3.32 µM (inactive); in test [4] it was 23.4 µM (inactive); in test [5], 2.3 µM (inactive); in [6] it was 5.38 µM (inactive).
As for `CCC1(c2c(F)c(F)c(N)c(F)c2F)CCC(=O)NC1=O` (configuration not stated), the GI50 in test [1], in [8], in test [2], in test [3], in test [5] and in test [6] was > 100 µM (inactive) each time. In test [7], the GI50 was > 100 µM (inactive).
Turning to `O=C(/C=N/O)Nc1cccc(Cl)c1I`, the GI50 in test [1] was 25 µM (inactive); in test [2], > 100 µM (inactive); in test [3] it was 63.4 µM (inactive); in test [4], > 100 µM (inactive); in test [5], 23.3 µM (inactive); in test [6] it was 80.7 µM (inactive).
Regarding `Cc1ccc(C2=C(c3ccccc3)C(Br)(c3ccccc3)C(c3ccccc3)=C2c2ccc(C)cc2)cc1`, the GI50 in [1], in test [8], in test [3], in test [4], in test [5] and in [6] was > 100 µM (inactive) in each case. Besides, the GI50 in test [7] was > 100 µM (inactive).
